# Results taken from PubChem BioAssay (NCI).
# “And” between values parts separate entries of the source, which are not always exact repeats. Equal entries are not always repeated.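 Assay format: 96-well plates, 48-hour exposure. GI50 is the concentration that inhibits growth by half. TGI is the concentration that stops growth completely.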
# Assays:
# Test in all cases: NCI anticancer screen, dose series, 48 h
# [1] = tested on: A498 renal
# [2] = tested on: A549 NSCLC
# [3] = tested on: HCT-116 colon
# [4] = tested on: HOP-92 NSCLC
# [5] = tested on: IGROV1 ovarian
# [6] = tested on: MDA-MB-231 breast
# [7] = tested on: SF-539 CNS
# [8] = tested on: SK-MEL-2 melanoma
# [9] = tested on: SK-MEL-28 melanoma
# [10] = tested on: SNB-75 CNS
SMILES,TGI [1],TGI [2],TGI [3],TGI [4],TGI [5],TGI [6],TGI [7],TGI [8],TGI [9],TGI [10],GI50 [1],GI50 [2],GI50 [3],GI50 [4],GI50 [5],GI50 [6],GI50 [7],GI50 [8],GI50 [9],GI50 [10]
C1=CN2C[n+]3cccc(OCc4ccccc4)c3N=C2C(OCc2ccccc2)=C1,> 100 µM,> 100 µM,> 100 µM,81.4 µM,27.7 µM,56.1 µM,26.7 µM,33.3 µM,36 µM,> 100 µM,–,–,–,–,–,–,–,–,–,–
C[C@@H](c1ccc2nccn2c1)n1nnc2ncc(-c3cnn(C)c3)nc21,> 100 µM,> 100 µM,> 100 µM,> 100 µM,> 100 µM,> 100 µM,> 100 µM,> 100 µM,> 100 µM,> 100 µM,72.8 µM,> 100 µM,> 100 µM,58 µM,> 100 µM,> 100 µM,> 100 µM,> 100 µM,> 100 µM,> 100 µM
COc1cc(CCc2cc(NC(=O)c3ccc(N4C[C@@H](C)N[C@@H](C)C4)cc3)n[nH]2)cc(OC)c1,0.0838 µM and 0.12 µM,> 10 µM and 15.3 µM,> 10 µM and 13.1 µM,> 10 µM and 12.8 µM,> 10 µM and 19.8 µM,> 10 µM and 19.7 µM,> 10 µM and 15.1 µM,> 10 µM and 18.2 µM,> 10 µM and 20.9 µM,> 10 µM and 11.2 µM,0.014 µM and < 0.0107 µM,> 10 µM and 3.9 µM,3.79 µM and 3.49 µM,1.95 µM and 1.96 µM,2.93 µM and 4.59 µM,> 10 µM and 5.81 µM,6.6 µM and 4.08 µM,4.17 µM and 4.95 µM,> 10 µM and 7.74 µM,1.93 µM and 2.61 µM
Cc1ccc(-c2c(C#N)c(N)nc(N3CCOCC3)c2C#N)o1,54.4 µM,> 100 µM,> 100 µM,> 100 µM,59.6 µM,80.7 µM,> 100 µM,> 100 µM,> 100 µM,43.9 µM,15.5 µM,57.1 µM,33.5 µM,23.6 µM,21.6 µM,21 µM,48.3 µM,78.8 µM,71.3 µM,2.73 µM
CCCCCCCCCCCCCCCCCCNC(=O)[C@H]1CSC(c2ccc(OC)c(F)c2)N1 (some centres undefined),> 38.3 µM,38.1 µM,3.5 µM,28.9 µM,29.1 µM,5.16 µM,> 37.6 µM,5.48 µM,3.52 µM,14.1 µM,–,9.87 µM,1.68 µM,7.48 µM,6.65 µM,1.9 µM,4.67 µM,2.27 µM,1.42 µM,3.1 µM
COc1cc(C(=O)O)c([N+](=O)[O-])c(OC)c1OC,> 100 µM,> 100 µM,> 100 µM,> 100 µM,> 100 µM,> 100 µM,> 100 µM,> 100 µM,> 100 µM,> 100 µM,–,–,–,–,–,–,–,–,–,–
Cc1cc2c(C)c3cc(C)c(N)cc3nc2cc1N,2.01 µM,3.16 µM,6.14 µM,5.13 µM,10.8 µM,3.48 µM,3.48 µM,3.85 µM,10.5 µM,4.94 µM,0.363 µM,0.636 µM,0.383 µM,1.54 µM,1.06 µM,1.09 µM,0.455 µM,1.3 µM,2.69 µM,1.14 µM
